Measurements as given in patent US10660336B2 (priority 2014, dated 2020).
Like-named read-outs stand apart in the source and are kept apart here.

Experiments:
[1] = system: pepper mottle virus (PepMoV); parameters: species or system Nicotiana benthamiana; conditions: in vivo
[2] = system: pepper mottle virus (PepMoV); parameters: species or system Capsicum anuum L.; conditions: in vivo
[3] = system: tobacco mosaic virus; experiment: Half leaf method, anti-viral activity against tobacco mosaic virus (local lesion count); assay type: in vivo; conditions: concentration of 5 ppm or above; Nicotiana tabacum cv. Xanthi nc half leaf; 3 days after inoculation
Method: A half leaf method was performed to determine an anti-viral activity against tobacco mosaic virus, which was provided from the plant virus genebank (PVGB), Seoul women's university, of the compounds which was determined to have the anti-viral activity against the pepper mottle virus in Example 3. The half leaf method utilizes features of producing black spots due to local lesions around the infected part by tobacco mosaic virus in Nicotiana tabacum cv. Xanthi nc which is a local lesion host. Top 3 leaves and 4 leaves of 7-8 normal leaves of the local lesion host were taken and carborundum was evenly sprayed throughout the leaves. A compound 1 (Trichodermin) sample at test concentrations dissolved in DMSO and the tobacco mosaic virus solution were mixed. Right half leaf of the leaf of the Nicotiana tabacum cv. Xanthi nc was inoculated with this mixture and the other left half leaf was inoculated with tobacco mosaic virus solution (control) using cotton swabs. After petiole of the leaf of the Nicotiana tabacum cv. […] After 3 days of inoculation, the number of local lesions was counted and 100-400 of lesions of […] control half leaf was only applied. Activity rate using the number of lesions was calculated by the following equation. […]

Q: Which “spreading rate of the pepper mottle virus (green fluorescent protein in upper leaves under UV, viral RNA and coat protein)” value [1] does the source give for `CC(=O)O[C@@H]1C[C@H]2O[C@@H]3C=C(C)CC[C@]3(C)[C@]1(C)[C@]21CO1` [Trichodermin] here?
A: inhibits spreading rate of the pepper mottle virus

Q: What about the “spreading rate of the pepper mottle virus (green fluorescent protein in upper leaves under UV, viral RNA and coat protein)” value [2] of the same compound?
A: inhibits spreading rate of the pepper mottle virus

Q: What about the “anti-viral activity against the tobacco mosaic virus (control rate from number of local lesions)” value [3] of the same compound?
A: ≥ 97%
